{"source": "patent US10827753B2", "about": "“Compositions and methods for controlling nematodes” (Monsanto Technology LLC, priority 2007, dated 2020)", "key": {"C. elegans": {"test_system": "C. elegans", "assay": "Three day C. elegans well assay", "assay_type": "in vivo", "details": "for EC50 L1 1D: L1 larvae; for EC50 L1 1D / EC50 L4 1D: one day of exposure; for EC50 L4 2D / EC50 L4 2D (F1): two days of exposure; for EC50 L4 2D (F1): effects on the second generation larvae (F1)", "description": "Various compounds were tested for nematicidal activity against C. elegans using contact assays in wells. The assays were performed as described below. The test compounds were solubilized in DMSO at 10 mg/ml to create 100× stock solutions. A dilution series was created by diluting the stock solution with DMSO. For each well assay 4 ul of the appropriate dilution is added to a well of a test plate. A 400 ul aliquot of bacterial stock (in M9 buffer with ampicillin and nystatin) are added to each well of the test plate. Worms are added and the test plate placed on a rotary shaker and held at 20° C. Worms are examined and scored at 4 hrs, 24 hrs, 48 hrs and 72 hours. L1 worms and L4 worms were used in the assay. L1 worms are prepared by plating eggs on a plate without a bacterial feeding layer. The eggs hatch and arrest at the L1 stage. This L1 stage population is then used to create a stock for the experiments. To create an L4 stage stock a small number of worms are taken from an overgrown and starved plate of worms and seeded on a plate with a bacterial feeder layer. A 25 ul aliquot of worms is added to each well in the assay."}, "Meloidogyne incognita [1]": {"test_system": "Meloidogyne incognita", "assay": "M. incognita miniaturized greenhouse assay on cucumber seedlings (root galling)", "assay_type": "in vivo", "design": "key to 1 ppm gall ratings / 1 ppm gall rating: mean of 3 gall ratings: 0=0-5%, 1=6-20%, 2=21-50%, 3=51-100% root galled", "description": "The test compound is dissolved in an acetone solution and added to water. A sprouted cucumber seedling is placed into a vial with dry sand and the water-chemical solution is added immediately. Twenty four hours later Meloidogyne incognita eggs are added to the vials and 10 to 12 days later the roots are evaluated for nematode galling.\nCucumber seeds are sprouted for 3 days in moist paper towels. Acceptable sprouts should be 3 to 4 cm long with several lateral roots just emerging. Stock solutions of chemistry are prepared in a mixture of acetone and Triton X100 (412 mg in 500 mL) to a final concentration of 5 mg/mL. The chemical stock solution is then added to 10 mL deionized water plus 0.015% Triton X100 and mixed thoroughly. This is enough to test each condition in triplicate. Ten mL dry sand is added to each vial. At this time the solubility of the chemistry is visually determined and recorded as either ppt (large precipitates) or cloudy (fine precipitates). Seedlings are planted by tilting the vial and laying the seedling in the correct orientation so that the cotyledons are just above the sand and then tilting back to cover the radicles with sand. 3.3 ml water/chemical mix is added to each vial and the vials placed in racks under fluorescent light banks. The vials are inoculated two days after planting by adding 500 vermiform M. incognita eggs to each vial in 50 uL of deionized or spring water. The vials are then kept under the fluorescent lamps at ambient room temperature and watered as needed with 1 mL deionized water, usually twice during duration of test. Harvest of the cucumber plants is done 10 to 12 days after inoculation by washing sand off the roots. A root gall rating and visual phytotoxicity rating is assigned using the following scales: Gall rating scale (Gall: % root mass galled): 0=0-5%; 1=6-20%; 2=21-50%; and 3=51-100%. The average of the triplicate gall rating is then calculated: green=0.00-0.33 (no galls); yellow=0.67-1.33 (mild galling); orange=1.67-2.33 (moderate galling); red=2.67-3.00 (severe galling). Visual phytotoxicity scale is also assigned (Vis. tox; visual reduction in root mass compared to the control): rs1=mild stunting; rs2=moderate stunting; rs3=severe stunting."}, "root knot nematode": {"test_system": "root knot nematode", "assay": "Pre-plant incorporated (PPI) greenhouse test of root knot nematode on cucumber plants", "assay_type": "in vivo, Meloidogyne incognita", "details": "Meloidogyne incognita, fourteen day pre-plant incorporated, test a, read-out: percent control (galling reduction) relative to the control blank treatment", "from_the_text": "The PPI test examines the effect of pre-incorporation of compounds in soil and longer aging to simulate in furrow methods of nematicide application in the field. The PPI test exposes compounds to a higher volume of soil and drying which can result in more severe soil binding. Compounds are also aged for longer periods which can lead to more extensive biotic and abiotic degradation further limiting activity.\nThe chemically treated soil (sandy soil mix) for all treatment days (e.g., 7 days, 14 days, 21 days) treatments is potted into their appropriate pots. On the same day the 7 day treatment pots are seeded. One week later eggs are applied and 14 days after egg application the test is harvested. The 14 day treatments are planted 7 days after the first planting. The 14 day planting and 7 day inoculation happen on the same day. One week later the 14 day treatments are inoculated with eggs. These are harvested 14 days after the inoculation. The 21 day treatments are planted 14 days after the first planting. The 14 day inoculation and 21 day planting are done on the same day. One week later the 21 day plants are inoculated with eggs. The 7 day treatment is harvested the same day as the 21 day inoculation. Fourteen days after inoculation the 21 day plants are harvested.\nFor each compound a stock is prepared using 4 mg material in 4 ml of acetone. The soil is mixed by placing 80 ml of field soil and 320 ml of sand in a plastic bag and mixing well. The formulation for treatment is done by adding 2.13 ml (8 kg/ha rate), 1.06 ml (4 kg/ha rate) or 0.53 ml (2 kg/ha rate) to a vial and raising it with 10 ml in 0.05%×100. Soil is then treated by adding the entire 10 ml to the 400 ml of mix in the bag. The treated soil is immediately mixed well in the sealed bag to distribute the compound evenly. Approximately 95 ml is used to fill each 2-inch square pot up to the top with some soil compression and flattening. For each compound and for the control treatments 4 pots are filled. All pots are watered until moist but with no run-out through the bottom.\nThe PPI test simulates 8, 4 and 2 kg/ha rates incorporated 15 cm deep in the field and is equivalent to the 2, 1 and 0.5 kg/ha drench application rates in the standard 2-inch pot cucumber greenhouse assay."}, "root knot nematode (RKN)": {"test_system": "root knot nematode (RKN)", "assay": "RKN greenhouse soil assay on cucumber plants", "assay_type": "in vivo, Meloidogyne incognita", "from_the_text": "Cucumber seeds are planted in a sandy soil mixture in two inch square plastic pots. When the cotyledons are fully opened and just as the first leaf begins to emerge, usually 7 days after planting, chemistry for the 7 day treatment is applied. One week later the chemistry for the 0 day treatment is applied. Separate plants are used for each application. The plants are generally in the 1-2 leaf stage now. At least four hours after the chemistry application the pots are inoculated with root knot nematode (RKN) eggs. Plants are rated for galling 14 days after the egg inoculation.\nOne milligram of chemistry per four pots is equal to one kilogram per hectare of chemical. A standard test uses four replications. For rates above 2 kg/ha, the desired amount of chemical is weighed into a 30 ml vial (example: 8 kg/ha rate=8 mg chemical in 30 ml vial). The chemical is dissolved in 2 ml of appropriate solvent, generally acetone. For rates below 2 kg/ha, 2 milligrams of chemistry is weighed into the vial and dissolved in 2 ml of the solvent. The appropriate amount of chemical concentrate is then pipetted into a separate 30 ml vial and solvent is added to bring the volume to 2 ml (example 0.5 kg/ha=0.5 ml of concentrate+1.5 ml solvent). Each dissolved concentrate is then brought to a total of 20 milliliters using 0.05% Triton X 100 surfactant solution.\nPots to be treated are moist but not saturated. To each of four pots, five milliliters of the appropriate chemical solution is pipetted to the media surface making sure to avoid contact with the base of the plant. Immediately following chemical application, using a mist nozzle, the pot surface is wetted sufficiently to saturate the pot watering in the chemistry. The chemical application is done in the morning.\nNematode eggs, either SCN or RKN, are added to distilled water to create a concentration of 1000 vermiform eggs […]. At least four hours after chemical treatment the eggs are applied to the treated pots plus non-treated check plants. A small hole about 1 cm deep is punched into the pot surface. One milliliter of the nematode egg slurry is pipetted into the hole. Immediately afterwards the hole is gently covered. Watering of the test plants is then restricted to only water as needed to prevent wilt for a period of 24 hours. After the 24 hour restricted watering, normal sub-irrigation watering is done for the duration of the test."}, "Meloidogyne incognita [2]": {"test_system": "Meloidogyne incognita", "assay": "Summer field evaluation of pre-plant incorporated compounds on squash", "assay_type": "in vivo", "description": "Test plots of 33 cm diameter holes were bored 41 cm deep into clay soil and filled with a mixture of 80% sand and 20% silt loam soil. Technical compound for each treatment was dissolved in 50 ml acetone containing 250 ul of Triton X-100 surfactant. This solution was added to 450 ml water and poured onto 95 liters of sand/soil mixture in a rotating drum mixer. While continuing to rotate the mixing drum 66 grams of chopped, galled, tomato roots was added and thoroughly distributed. The treated soil was sufficient to fill the top 15 cm of each of the 6 replicate plots, thus simulating a PPI treatment. The plots were then watered lightly and a mixture of M. incognita eggs and larvae were injected 5 cm deep at 5 points within the plot (100 k eggs/larvae in 10 ml per plot). Three-week old squash (cv. Liberator III) with 1 fully expanded true leaf was planted 4 days after soil treatment, one per plot."}}}
{"smiles": "Fc1ccc(-c2noc(-c3cccs3)n2)c(F)c1", "note": "[compound 5847]", "values": [{"measurement": "EC50 L1 1D", "setting": "C. elegans", "value": "no"}, {"measurement": "EC50 L4 1D", "setting": "C. elegans; L4 larvae", "value": "no"}]}
{"smiles": "Clc1ccccc1-c1cnc(-c2ccco2)o1", "note": "[compound 5828]", "values": [{"measurement": "EC50 L4 1D", "setting": "C. elegans; L4 larvae", "value": "no"}, {"measurement": "EC50 L4 3D", "setting": "C. elegans; L4 larvae, three days of exposure", "value": "no"}, {"measurement": "EC50 L4 2D", "setting": "C. elegans; L4 larvae", "value": "no"}]}
{"smiles": "Clc1ccc(-c2noc(-c3ccco3)n2)cc1", "note": "[compound 5523]", "values": [{"measurement": "1 ppm gall ratings", "setting": "Meloidogyne incognita [1]; Table 1B test a", "value": "1 (1=6-20%)"}, {"measurement": "1 ppm gall ratings", "setting": "Meloidogyne incognita [1]; Table 1B test b", "value": 1.33}, {"measurement": "8 ppm gall ratings", "setting": "Meloidogyne incognita [1]; 8 ppm, average of triplicate gall rating, scale 0-3 (% root mass galled)", "value": "0 (0=0-5%)"}, {"measurement": "pest or weed control at 2000 g/ha", "setting": "root knot nematode; 2 kg/ha rate", "value": 59, "unit": "%"}, {"measurement": "pest or weed control at 4000 g/ha", "setting": "root knot nematode; 4 kg/ha rate", "value": 87, "unit": "%"}, {"measurement": "pest or weed control at 8000 g/ha", "setting": "root knot nematode; 8 ka/ha rate", "value": 99, "unit": "%"}, {"measurement": "percent control (galling reduction) relative to the appropriate control blank treatment", "setting": "root knot nematode (RKN); Acetone 1 mg/kg, standard 10% acetone in 0.05% Triton X 100 formulation", "value": 86, "unit": "%"}, {"measurement": "percent control (galling reduction) relative to the appropriate control blank treatment", "setting": "root knot nematode (RKN); Radex 1 mg/kg, emulsifiable concentrate, 6.25% active ingredient by weight", "value": 86, "unit": "%"}, {"measurement": "0-3 vigor 16 DAP", "setting": "Meloidogyne incognita [2]; 4 kg (kg/ha) PPI, squash", "value": 3.0}, {"measurement": "0-3 vigor 21 DAP", "setting": "Meloidogyne incognita [2]; 4 kg (kg/ha) PPI, squash", "value": 3.0}, {"measurement": "feeder root (3 = ave) 31 DAP", "setting": "Meloidogyne incognita [2]; 4 kg (kg/ha) PPI, squash", "value": 3.0}, {"measurement": "gall % 31 DAP", "setting": "Meloidogyne incognita [2]; 4 kg (kg/ha) PPI, squash", "value": 26, "unit": "%"}, {"measurement": "root wgt (g) 31 DAP", "setting": "Meloidogyne incognita [2]; 4 kg (kg/ha) PPI, squash", "value": 26.3, "unit": "g"}, {"measurement": "top wgt (lbs) 31 DAP", "setting": "Meloidogyne incognita [2]; 4 kg (kg/ha) PPI, squash", "value": 1.31, "unit": "lbs"}, {"measurement": "total fruit (lbs)", "setting": "Meloidogyne incognita [2]; 4 kg (kg/ha) PPI, squash", "value": 1.24, "unit": "lbs"}, {"measurement": "control of M. incognita (in words)", "setting": "Meloidogyne incognita [2]; PPI application at 4 kg/ha", "value": "significant control"}]}
{"smiles": "Fc1ccc(-c2noc(-c3ccco3)n2)c(F)c1", "note": "[compound 5849]", "values": [{"measurement": "EC50 L4 1D", "setting": "C. elegans; L4 larvae", "value": "no"}, {"measurement": "EC50 L4 2D (F1)", "setting": "C. elegans; L4 larvae", "value": "(6.3 F1) parts per million"}]}
{"smiles": "Clc1cc(-c2noc(-c3ccco3)n2)ccc1Br", "note": "[compound 5821]", "values": [{"measurement": "EC50 L4 1D", "setting": "C. elegans; L4 larvae", "value": "no"}, {"measurement": "EC50 L4 2D (F1)", "setting": "C. elegans; L4 larvae", "value": "(0.4 F1) parts per million"}]}
{"smiles": "Cc1cc(Br)ccc1-c1noc(-c2cccs2)n1", "note": "[compound 5824]", "values": [{"measurement": "EC50 L4 1D", "setting": "C. elegans; L4 larvae", "value": "no"}, {"measurement": "EC50 L4 2D", "setting": "C. elegans; L4 larvae", "value": "no"}]}
{"smiles": "Cc1cc(F)ccc1-c1noc(-c2cccs2)n1", "note": "[compound 5845]", "values": [{"measurement": "EC50 L1 1D", "setting": "C. elegans", "value": "no"}, {"measurement": "EC50 L4 1D", "setting": "C. elegans; L4 larvae", "value": "no"}]}
{"smiles": "Clc1cc(-c2noc(-c3cccs3)n2)ccc1Br", "note": "[compound 5820]", "values": [{"measurement": "EC50 L4 1D", "setting": "C. elegans; L4 larvae", "value": "no"}, {"measurement": "EC50 L4 2D (F1)", "setting": "C. elegans; L4 larvae", "value": "(25 F1) parts per million"}]}
{"smiles": "Cc1cc(Cl)ccc1-c1noc(-c2cccs2)n1", "note": "[compound 5822]", "values": [{"measurement": "EC50 L4 1D", "setting": "C. elegans; L4 larvae", "value": "no"}]}
